± gives the standard deviation of the averaged measurements.
Assays:
METHOTREXATE = compound: CN(Cc1cnc2nc(N)nc(N)c2n1)c1ccc(C(=O)N[C@@H](CCC(=O)O)C(=O)O)cc1 [METHOTREXATE]; assay: surviving fraction relative to DMSO-only wells; higher = less growth inhibition; conditions: exposure time: 5 days
Method in brief: (§1)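 Five days of continuous inhibitor exposure, at 0.5, 1, 5, 10, 50, 100, 500 and 1000 nM, followed a 24-hour period after log-phase tumour cell lines were seeded at 250–500 cells per well in 384-well plates. Surviving fraction was derived from CellTiter-Glo luminescence relative to the median of DMSO-only wells. Plates were read after 10 minutes at room temperature, and lines screened three times were kept only if replicate Pearson r >0.7 and median Z' >0.3.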

ERLOTINIB = compound: C#Cc1cccc(Nc2ncnc3cc(OCCOC)c(OCCOC)cc23)c1 [ERLOTINIB]; assay: as above; conditions: exposure time: 5 days
Method in brief: as §1

Test System | surviving fraction (METHOTREXATE; 0.5 nM) | surviving fraction (METHOTREXATE; 1 nM) | surviving fraction (METHOTREXATE; 5 nM) | surviving fraction (METHOTREXATE; 10 nM) | surviving fraction (METHOTREXATE; 50 nM) | surviving fraction (METHOTREXATE; 100 nM) | surviving fraction (METHOTREXATE; 500 nM) | surviving fraction (METHOTREXATE; 1000 nM) | surviving fraction (ERLOTINIB; 0.5 nM) | surviving fraction (ERLOTINIB; 1 nM) | surviving fraction (ERLOTINIB; 5 nM) | surviving fraction (ERLOTINIB; 10 nM) | surviving fraction (ERLOTINIB; 50 nM) | surviving fraction (ERLOTINIB; 100 nM) | surviving fraction (ERLOTINIB; 500 nM) | surviving fraction (ERLOTINIB; 1000 nM)
SG31 HEADNECK | 1.14 ± 0.19 | 1.21 ± 0.037 | 1.07 ± 0.1 | 1.31 ± 0.22 | 1.16 ± 0.2 | 1.18 ± 0.19 | 1.26 ± 0.2 | 1.21 ± 0.024 | 1.29 ± 0.38 | 1.29 ± 0.13 | 1.03 ± 0.11 | 0.863 ± 0.092 | 1.08 ± 0.18 | 0.762 ± 0.059 | 0.716 ± 0.2 | 0.667 ± 0.21
SG32 HEADNECK | 0.946 ± 0.11 | 1.5 ± 0.84 | 1.19 ± 0.16 | 1.25 ± 0.34 | 0.899 ± 0.039 | 1.02 ± 0.2 | 1.1 ± 0.14 | 0.954 ± 0.078 | 1.14 ± 0.11 | 1.11 ± 0.092 | 1.1 ± 0.29 | 1.03 ± 0.18 | 1.12 ± 0.14 | 1.11 ± 0.092 | 0.795 ± 0.067 | 1.26 ± 0.28
SG43 HEADNECK | 0.924 ± 0.046 | 1.01 ± 0.21 | 0.917 ± 0.18 | 0.915 ± 0.16 | 0.881 ± 0.092 | 0.678 ± 0.091 | 0.909 ± 0.15 | 0.84 ± 0.055 | 1.06 ± 0.2 | 0.978 ± 0.049 | 0.882 ± 0.18 | 0.734 ± 0.17 | 0.689 ± 0.13 | 0.458 ± 0.16 | 0.265 ± 0.032 | 0.335 ± 0.097
SIHA CERVIX | 1.05 ± 0.02 | 1.14 ± 0.048 | 1.07 ± 0.085 | 1.1 ± 0.017 | 0.8 ± 0.014 | 0.835 ± 0.034 | 0.787 ± 0.018 | 0.782 ± 0.014 | 1.1 ± 0.05 | 1.075 ± 0.0096 | 1.12 ± 0.074 |  | 1.1 ± 0.067 | 1.08 ± 0.099 |  | 1.06 ± 0.038
SJSA1 BONE | 1.62 ± 0.029 | 1.63 ± 0.05 | 1.61 ± 0.075 | 1.67 ± 0.14 | 1.7 ± 0.065 | 1.79 ± 0.12 | 1.64 ± 0.1 | 1.88 ± 0.062 | 1.69 ± 0.11 | 0.267 ± 0.022 | 1.55 ± 0.035 | 0.189 ± 0.0056 | 1.02 ± 0.032 | 1.76 ± 0.13 | 1.75 ± 0.1 | 
SKBR3 BREAST | 1.02 ± 0.024 | 1.11 ± 0.027 | 1.11 ± 0.1 | 1.04 ± 0.12 | 0.784 ± 0.13 | 0.629 ± 0.038 | 0.503 ± 0.1 | 0.512 ± 0.13 | 1.11 ± 0.13 | 1.1 ± 0.15 | 1.07 ± 0.15 | 1.15 ± 0.1 | 1.11 ± 0.024 | 1.05 ± 0.08 | 1.04 ± 0.15 | 0.874 ± 0.06
SNU475 LIVER | 1.04 ± 0.056 | 1.05 ± 0.05 | 1.05 ± 0.018 | 0.924 ± 0.01 | 0.822 ± 0.13 | 0.854 ± 0.072 | 0.875 ± 0.047 | 0.843 ± 0.11 | 1.01 ± 0.03 |  | 0.974 ± 0.064 | 0.982 ± 0.044 | 0.957 ± 0.03 | 1 ± 0.047 | 0.909 ± 0.012 | 0.88 ± 0.057
SUM44 BREAST | 1.31 ± 0.48 | 1.29 ± 0.48 | 1.23 ± 0.36 | 1.23 ± 0.39 | 1.33 ± 0.5 | 1.17 ± 0.38 | 0.819 ± 0.25 | 0.802 ± 0.29 | 1.31 ± 0.45 | 1.19 ± 0.29 | 1.28 ± 0.4 | 1.21 ± 0.26 | 1.34 ± 0.49 | 1.32 ± 0.36 | 1.39 ± 0.53 | 1.29 ± 0.38
SUM149 BREAST | 1.05 ± 0.075 | 1.13 ± 0.12 | 1.1 ± 0.087 | 1.06 ± 0.036 | 0.848 ± 0.074 | 0.751 ± 0.057 | 0.746 ± 0.027 | 0.781 ± 0.058 | 1.1 ± 0.12 | 1.11 ± 0.12 | 1.01 ± 0.13 | 0.966 ± 0.082 | 0.922 ± 0.13 | 0.75 ± 0.03 | 0.454 ± 0.042 | 0.434 ± 0.033
SUM149.B1*.S BREAST | 1.09 ± 0.065 | 1.12 ± 0.042 | 1.06 ± 0.036 | 1.09 ± 0.041 | 0.854 ± 0.035 | 0.767 ± 0.052 | 0.716 ± 0.046 | 0.733 ± 0.0095 | 1.11 ± 0.071 | 1.12 ± 0.021 | 1.09 ± 0.065 | 1.09 ± 0.017 | 1.15 ± 0.048 | 1.08 ± 0.013 | 1.07 ± 0.069 | 1.08 ± 0.079
SUM159 BREAST | 1.1 ± 0.027 | 1.09 ± 0.036 | 1.1 ± 0.049 | 1.09 ± 0.029 | 1.03 ± 0.038 | 0.951 ± 0.018 | 0.884 ± 0.013 | 0.897 ± 0.02 | 1.11 ± 0.039 | 1.1 ± 0.033 | 1.09 ± 0.023 | 1.07 ± 0.024 | 1.07 ± 0.013 | 1.05 ± 0.015 | 1.07 ± 0.012 | 1.06 ± 0.016
SYO1 SYNOVIAL | 0.991 ± 0.03 | 0.983 ± 0.047 | 0.984 ± 0.041 | 0.991 ± 0.074 | 0.419 ± 0.024 | 0.285 ± 0.0055 | 0.284 ± 0.02 | 0.281 ± 0.011 | 1.02 ± 0.016 | 1.04 ± 0.034 | 1.03 ± 0.017 | 0.986 ± 0.067 | 1.01 ± 0.023 | 1.01 ± 0.015 | 1.02 ± 0.028 | 
T47D BREAST | 1.12 ± 0.013 | 1.12 ± 0.073 | 1.07 ± 0.025 | 0.9393 ± 0.0076 | 0.562 ± 0.033 | 0.406 ± 0.065 | 0.33 ± 0.025 | 0.339 ± 0.024 | 1.13 ± 0.059 | 1.08 ± 0.052 | 1.13 ± 0.084 | 1.09 ± 0.028 | 1.18 ± 0.039 | 1.17 ± 0.048 | 1.16 ± 0.084 | 1.12 ± 0.039
U2OS BONE | 1 ± 0.045 | 1.02 ± 0.039 | 1.04 ± 0.051 | 0.31 ± 0.0076 | 0.672 ± 0.01 | 0.669 ± 0.014 | 0.636 ± 0.016 | 0.625 ± 0.026 | 1.06 ± 0.016 |  |  |  | 1.11 ± 0.015 | 1.04 ± 0.028 | 1.02 ± 0.014 | 
VCAP PROSTATE | 0.961 ± 0.06 | 0.984 ± 0.036 | 1.02 ± 0.094 | 1.07 ± 0.11 | 1.03 ± 0.079 | 1.07 ± 0.062 | 1.02 ± 0.078 | 1 ± 0.058 | 1 ± 0.042 | 0.988 ± 0.16 | 1.17 ± 0.089 | 1.15 ± 0.057 | 1.13 ± 0.093 | 1.08 ± 0.084 | 1.11 ± 0.05 | 1.09 ± 0.093
VP229 BREAST | 1.13 ± 0.076 | 1.12 ± 0.15 | 1.14 ± 0.05 | 1.15 ± 0.13 | 1.25 ± 0.15 | 1.08 ± 0.12 | 1.12 ± 0.12 | 1.14 ± 0.053 | 1.05 ± 0.087 | 1.21 ± 0.12 | 1.17 ± 0.14 | 1.1 ± 0.086 | 1.06 ± 0.091 | 0.825 ± 0.048 | 0.568 ± 0.048 | 0.413 ± 0.06
YAMATO SYNOVIAL | 1.18 ± 0.13 | 1.05 ± 0.089 | 1.25 ± 0.17 | 0.532 ± 0.058 | 0.685 ± 0.065 | 0.587 ± 0.05 | 0.584 ± 0.046 | 0.604 ± 0.048 | 1.28 ± 0.12 | 1.29 ± 0.088 | 1.43 ± 0.079 | 1.26 ± 0.036 | 1.39 ± 0.071 | 1.35 ± 0.014 | 1.31 ± 0.074 | 1.2 ± 0.15
ZR751 BREAST | 1 ± 0.11 | 1.1 ± 0.14 | 0.975 ± 0.057 | 1.29 ± 0.21 | 0.715 ± 0.077 | 0.69 ± 0.088 | 0.707 ± 0.044 | 0.741 ± 0.011 | 1.01 ± 0.04 | 1.29 ± 0.17 | 1.14 ± 0.14 | 1.05 ± 0.087 | 0.926 ± 0.14 | 0.881 ± 0.14 | 0.71 ± 0.18 | 0.766 ± 0.045
